Results on one sequence are retold here after article PMC7502707, “Characterization and validation of a preventative therapy for hypertrophic cardiomyopathy in a murine model of the disease” (Proceedings of the National Academy of Sciences of the …, 2020).

This test deals with T1, cardiac L-type calcium channel (ICa-L) (Mus musculus, UniProt Q01815).
T1 construct: measure changes in ICa-L currents ([13]), and stimulate calcium transients in intact ventricular myocytes; endogenous in cells; host or cells: ventricular myocytes isolated from wt (human cTnI transgene) and cTnI-G203S mice
Description: Whole-cell patch-clamp of ICa-L currents in ventricular myocytes. Type of test: cell-based. Particulars: cTnI-G203S myocytes, in vitro 1 μM peptide. Here is the method: The whole-cell configuration of the patch-clamp technique was used to measure changes in ICa-L currents ([13]), and stimulate calcium transients in intact ventricular myocytes. Detailed methods are provided in SI Appendix.
Supporting Materials and Methods
Isolation of ventricular myocytes
Myocytes were isolated from wt and cTnI-G203S mice. Animals were anesthetized with pentobarbitone sodium (240 mg/kg) via intraperitoneal injection prior to excision of the heart. Cells were isolated as previously described (1-3). Mouse hearts were excised, cannulated onto a Langendorff apparatus via the aorta, and perfused with Krebs-Henseleit Buffer (KHB) containing […]
O2/CO2 at 37°C) for 4 min at 37°C. […]
The whole-cell configuration of the patch-clamp technique was used to measure changes in ICa-L currents (4), and stimulate calcium transients in intact ventricular myocytes. […] Currents were measured in extracellular modified Tyrode’s solution containing (in mM): NaCl 140, CsCl 5.4, CaCl2 2.5, MgCl2 0.5, HEPES 5.5 and glucose 11 (pH adjusted to 7.6 with NaOH). Macroscopic currents were recorded using an Axopatch 200B voltage-clamp amplifier (Molecular Devices) with a Digidata 1440A interface and pClamp10.5 software (Molecular Devices). […] The time course of changes in Ca2+ conductance were monitored by applying a 100 ms test pulse to 10 mV once every 10 seconds. […]
(In patch-clamp work, channel activity is measured electrically.)

For the sequence QQLEEDLKGYLDWITQAE [AID-TAT], the ICa-L current density result is on record as “no significant alteration”. Also, for the setting “37 °C”, the “ICa-L inactivation rate (tau)” value is “restored ICa-L inactivation rate to wt levels”.
